Test results: paper PMC3159025 (2011)

Target: T1, system xc− (obligate cystine-glutamate transporter) (Homo sapiens, UniProt Q9UPY5)
T1 sequence (Q9UPY5 1-501): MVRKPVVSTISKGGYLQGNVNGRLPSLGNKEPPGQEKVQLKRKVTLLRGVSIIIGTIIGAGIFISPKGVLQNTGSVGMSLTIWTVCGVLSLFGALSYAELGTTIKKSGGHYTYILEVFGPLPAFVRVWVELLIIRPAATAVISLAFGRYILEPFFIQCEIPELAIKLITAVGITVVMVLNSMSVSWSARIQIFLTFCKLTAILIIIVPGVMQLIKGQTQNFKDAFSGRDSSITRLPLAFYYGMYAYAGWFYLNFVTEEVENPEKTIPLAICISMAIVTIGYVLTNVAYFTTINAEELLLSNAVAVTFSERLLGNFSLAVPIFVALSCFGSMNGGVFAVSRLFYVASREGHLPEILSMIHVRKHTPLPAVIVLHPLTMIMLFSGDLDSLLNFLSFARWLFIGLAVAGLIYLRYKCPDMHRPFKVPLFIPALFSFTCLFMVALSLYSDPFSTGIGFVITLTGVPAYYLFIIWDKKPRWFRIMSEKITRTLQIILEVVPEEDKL
T1 sequence (P08195 2-529 partner): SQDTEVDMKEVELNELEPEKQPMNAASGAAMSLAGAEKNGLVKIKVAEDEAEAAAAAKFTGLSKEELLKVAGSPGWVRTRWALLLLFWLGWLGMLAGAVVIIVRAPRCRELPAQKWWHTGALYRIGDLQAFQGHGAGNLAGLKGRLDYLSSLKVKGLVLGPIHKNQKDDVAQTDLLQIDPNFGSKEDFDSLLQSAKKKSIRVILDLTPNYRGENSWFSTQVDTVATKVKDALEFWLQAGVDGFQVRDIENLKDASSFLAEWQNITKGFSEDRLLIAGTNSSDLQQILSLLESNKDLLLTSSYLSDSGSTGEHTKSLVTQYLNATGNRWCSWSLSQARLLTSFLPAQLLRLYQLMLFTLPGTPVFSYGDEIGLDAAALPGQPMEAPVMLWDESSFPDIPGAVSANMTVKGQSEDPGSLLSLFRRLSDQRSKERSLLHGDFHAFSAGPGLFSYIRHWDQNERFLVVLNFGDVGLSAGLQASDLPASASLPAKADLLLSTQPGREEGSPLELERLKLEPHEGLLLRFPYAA
Assay: inhibition of 3H-L-glutamate uptake
Type: cell-based
Details: SNB-19, read-out: Uptake ^a Sxc^-

activity at 500 µM: 22 ± 3%
SMILES: N[C@@H](CSSC[C@H](N)C(=O)O)C(=O)O [L-Cystine]
